Experimental data taken from paper PMC11061149, “Protein mimetic 2D FAST rescues alpha synuclein aggregation mediated early and post disease Parkinson’s phenotypes” (Nature Communications, 2024).
“And” between values parts separate entries of the source, which are not always exact repeats. Equal entries are not always repeated.

Tests used:
αS fibers (PMCA) = molecular target: T1, αS fibers (PMCA) (Homo sapiens, UniProt P37840); assay: Protein misfolding cyclic amplification assay (PMCA), ThT readout; format: biochemical
T1 construct: made in house; host or cells: E. coli BL21(DE3)
Method: The PMCA assay was performed according to a previously described protocol. Briefly, an αS solution (100 µM) was prepared in PBS and 60 µL of the solution was placed in a 200 µL Polymerase Chain Reaction (PCR) tube and the mixture was subjected to five 24 h cycles of 1 min shaking (1200 rpm) and 29 min incubation at 37 °C. Every 24 h, 1 µL of αS solution was passaged to seed 60 µL of fresh soluble monomeric αS solution. The seeding cycle was repeated for five days, after which the ThT signal was measured for all five passages. For the preparation of PMCA samples of αS in the presence of NS132, a molar ratio of 1:1 (αS:NS132) was maintained. All experiments were performed in triplicate. The reported ThT intensity values are the average of three separate experiments with the error bars representing the standard deviations.

[1] = system: HEK cells expressing αSA53T-YFP; assay: MTT reduction assay of HEK cells treated with αS aggregated with or without ligand; format: cell-based, human
Method: The aggregation of endogenous monomeric αS-A53T-YFP into fibers can be detected by the intracellular fluorescent puncta (Fig. 3a, + αS). A solution of 100 μM αS was aggregated in the absence and presence of NS132 at an equimolar ratio for four days. The resulting solutions of αS fibers (5 μM in monomeric αS, ±NS132) were introduced to HEK cells in the presence of Lipofectamine 3000 for 24 h. In contrast to the control (no fibers), we observed a significant number of fluorescent inclusions in the presence of αS fibers (Fig. 3a, white arrows, +αS), which was a consequence of the templating of endogenous monomeric αS-A53T-YFP by the exogenously added αS fibers. […] Moreover, we observed the colocalization of an adaptor protein, p62, in the aggresome of αS inclusions in HEK cells (Fig. 3b, +αS, red),[51]–[54]. […] We also quantified the inclusions (αS-A53T-YFP) using a ProteoStat dye-based high throughput 96-well plate reader-based assay recently developed in our lab[24]. […] The viability of HEK cells was measured using the (3-(4,5-dimethylthiazol-2-yl)-2,5-diphenyltetrazolium bromide) (MTT) reduction based assay.
This assay was performed based on a previous protocol with slight modifications. […] The crystals were dissolved with gentle shaking of the plate, and subsequently, the absorbance was measured at 570 nm using an Infinite M200 Pro Plate Reader (Tecan, Grŏdig, Austria). […]

[2] = system: NL5901 worms (αS-YFP in body wall muscle cells); assay: Confocal counting of αS-YFP inclusions in NL5901 worms; format: in vivo, C. elegans; details: for number of inclusions in NL5901, individual trials: 50 µM ligand; for number of inclusions: 50 μM ligand
Method: In NL5901 strain, αS-YFP is expressed in the muscle cells of worms. The aggregates of αS-YFP are visible from day 4 and the maximum number of αS-YFP aggregates are visible round day 8 and day 9. The standard worm conditions were used for the culturing of various worm strains. […] The cultures of OP50 were prepared by incubating 50 mL of LB medium with OP50 18 h at 37 °C and the final OD value was adjusted to 0.5 at 600 nm. The NGM plates were prepared by treating them with 350 µL OP50 and leaving the plates at 20 °C for 3 days. […] The NGM plates (with NGM media) were used for the treatment of different worm strains with ligands. […] The NGM plates treated with ligands were prepared and used within 24 h. We used these plates to treat various disease strains for different assays. This experiment was performed based on previously described protocols with slight modifications[24],[65],[88]. […] On day two, the worms were divided into two batches. […] On day four, the ligand (10–50 µM, stock conc. = 10 mM in DMSO, DMSO from 0.1–0.5%, v/v) was added again to PLATE 3. […] For each condition, six biological replicates were performed and at least 10 technical replicates were used for each biological replicate. […] (n = 6 independent experiments and each n consisted of a minimum of ten technical replicates).

αS fibers = molecular target: T2, αS fibers (Homo sapiens, UniProt P37840); assay: Transmission electron microscopy (TEM) of αS solutions; format: biochemical
T2 construct: made in house; host or cells: E. coli BL21(DE3)
Method: Transmission Electron Microscopy was used to visualize protein assemblies after aggregation experiments as previously described. Briefly, aliquots (5 μL) of αS solutions (with or without ligands) were applied on glow-discharged carbon-coated 300-mesh copper grids for 2 min and dried using Kimwipes (Kimberly-Clark, Irving, TX). The copper grids were negatively stained for 1 min with uranyl acetate (0.75%, w/v). The micrographs were taken on an FEI Tecnai G2 Biotwin TEM at 80 kV accelerating voltages.

ThT intensity of PMCA sample, individual trials (αS fibers (PMCA); Cycle 1, αS:NS132 1:1, before PK treatment): 58 and 56 and 50
ThT intensity of PMCA sample, individual trials (αS fibers (PMCA); Cycle 2, αS:NS132 1:1): 63 and 49 and 51
ThT intensity of PMCA sample, individual trials (αS fibers (PMCA); Cycle 3, αS:NS132 1:1): 57 and 62 and 53
ThT intensity of PMCA sample, individual trials (αS fibers (PMCA); Cycle 4, αS:NS132 1:1): 60 and 48 and 64
ThT intensity of PMCA sample, individual trials (αS fibers (PMCA); Cycle 5, αS:NS132 1:1): 86 and 68 and 66
change in ThT intensity of PMCA samples, in words (αS fibers (PMCA); equimolar ratio, up to cycle five): did not observe any significant change
αS fibers seen in TEM images, in words (αS fibers; 100 µM αS aggregated for four days with ligand): did not observe αS fibers
αS fibers seen in TEM images, in words (αS fibers; fibers-catalyzed aggregation of αS, 60 h, equimolar NS132): significantly fewer αS fibers
SMILES: Cc1ccc(NC(=O)c2ccc(NC(=O)c3ccc([N+](=O)[O-])c(NCCc4c[nH]c5ccccc45)n3)c(NCC3CCCCC3)n2)c(OCC(=O)O)n1 [NS132]
relative viability of HEK cells, individual trials ([1]; HEK cells + Synuclein fibers aggregated with equimolar NS132, control = 1): 0.8792 and 0.8235 and 0.899 and 0.8879 and 0.9679 and 0.8608 and 0.7821 and 0.8196 and 0.8279 and 0.7732 and 0.9011 and 0.8063 and 0.8583 and 0.8947 and 0.7357 and 0.8112
viability of HEK cells ([1]; αS aggregated solution with an equimolar ratio of NS132 (52% with αS alone)): 85%
number of inclusions in NL5901, individual trials ([2]; Day 8): 3 and 2 and 6 and 5 and 9 and 4 and 7 and 8
number of inclusions in NL5901, individual trials ([2]; Day 9): 5 and 6 and 7 and 8 and 11 and 10 and 3 and 9 and 4
number of inclusions ([2]; day eight): ~ 5 inclusions/worm
number of inclusions ([2]; day nine): ~ 6.6 inclusions/worm
